The format of data set [1] is in vivo, human. The note with it: through cycles 1 and 2, combination treatment.
Data set [2] in a line: Pharmacokinetics: everolimus blood levels, LC/MS, noncompartmental analysis. The data set is classed as in vivo, human. Conditions: through cycles 1 and 2, combination treatment.
In data set [3] the test system is advanced non-clear cell RCC. Conditions: single agent, 23 patients with advanced non-clear cell RCC; cited from earlier work.

Read-outs that look alike come from different tables or passages of the source.

As for `CCNCCNC(=O)c1c(C)[nH]c(/C=C2\C(=O)Nc3ccc(F)cc32)c1C` [N-desethyl sunitinib], the accumulation entry in data set [1] is “No unexpected accumulation”.

Regarding `CO[C@H]1C[C@@H]2CC[C@@H](C)[C@@](O)(O2)C(=O)C(=O)N2CCCC[C@H]2C(=O)O[C@H]([C@H](C)C[C@@H]2CC[C@@H](OCCO)[C@H](OC)C2)CC(=O)[C@H](C)/C=C(\C)[C@@H](O)[C@@H](OC)C(=O)[C@H](C)C[C@H](C)/C=C/C=C/C=C/1C` [everolimus], in data set [2], the accumulation result was “No unexpected accumulation”.

Consider `CCN(CC)CCNC(=O)c1c(C)[nH]c(/C=C2\C(=O)Nc3ccc(F)cc32)c1C` [sunitinib], for which, in data set [3], the “median PFS” value is reported as 5.5 months and the responses entry is on record as “no responses”.
